# Like-named read-outs stand apart in the source and are kept apart here.
# Columns and labels:
# [1] = test system: SREBP-2 transcriptional activity (SREBP2 cleavage) in HepG2_LSSprom cells; assay: Luciferase reporter driven by a SREBP-2 specific promoter in HepG2_LSSprom cells; format: cell-based; settings: 24 h, read-out: SREBP2 Cleavage (IC50 μM) 24 h
# Description: Dose response effects were measured of Compounds on the transcriptional activity of a Luciferase reporter driven by a SREBP-2 specific promoter in HepG2_LSSprom cells.
# (§1) HepG2_LSSprom cells (SwitchGear Genomics, cat# C711010L) were cultured in DMEM with 10% of fetal bovine serum (FBS), supplemented with Puromycin (1 μg/mL), 1% Penicillin/Streptomycin (Pen-Strep), 37° C., humidified, 95% air and 5% CO2. Culture media was refreshed every 2 or 3 days. Cells were used between passage number 6-12.
# For luminescence assays, cells were plated out at 20,000 cells/well in white 96 well plates in DMEM plus 10% FBS and 1% Pen-Strep without puromycin. After 1 day, cells were treated with Compound by diluting the drug in culture medium without FBS to a final concentration of 0.625, 1.25, 2.5, 3.75, 5 and 10 μM. Drug was prepared by dilutions of 10 mM stock aliquots. As control was used culture medium without FBS plus DMSO. Treatments with Compound were maintained for 6 h, or 24 h, until the luciferase assay was carried out.
# After 6 h of treatments with Compound, the luciferase assay was performed. Briefly, the assay solution (buffer+substrate) was prepare just prior to use. To each well 100 μL of assay solution was added. The 96-well plate was then gently mix for 2 min and incubated for 30 min at RT protected from light. The luminescence was read using a Synergy 4 (Biotek) equipment recording luminescence with sensibility set up at 150.
# (§2) Five independent experiments were carried out for both luciferase and cytotoxicity assay. In each experiment, three wells were use per condition and the results are represented as means±SEM.
# For luciferase assay, Vehicle (no treatment) was taken as 100% of luciferase activity. This value represents the SREBP-2 transcriptional activity for the vehicle condition and was taken as 100% of SREBP-2 cleaved. The percentage for each treatment was calculated normalizing against the vehicle control. The graphics were made using the GraphPad Prism ver. 6.05 software. Half of maximal inhibitory concentration (IC50) of the effect of Compound on SREBP was obtain by nonlinear fit regression of mean normalized values vs. Compound concentration using the log(inhibitor) vs. response−Variable slope (four parameters) tool.
# [2] = Cytotoxicity assay (LDH release) in HepG2_LSSprom cells; format: cell-based; settings: human, HepG2 LSSprom cells, 24 h treatment, LDH release
# Description: as §1
# For cytotoxicity assays, cells were plated out at 20,000 cells/well in transparent 96 well plates in DMEM plus 10% FBS and 1% Pen-Strep without puromycin. After 1 day, cells were treated with Compound by diluting in culture medium without FBS to a final concentration of 0.625, 1.25, 2.5, 3.75, 5 and 10 μM. Compound was prepared by dilutions of 10 mM stock aliquots. As a negative control culture medium was used without FBS plus DMSO. As maximum LDH release control (Lysis control) a lysis buffer provided by the kit manufacturer was used. Treatments with Compound were maintained for 6 h, or 24 h, in cell culture medium without serum until the cytotoxicity assay was started.
# The cytotoxicity assay was performed according to the manufacturer's instructions. As maximum LDH release control (Lysis control) 3 wells per plate were treated with 10 μL of lysis buffer 45 min before the treatment was over. Briefly, after the 6 h, or 24 h, of treatment, 50 μL of media from each well was transferred to a new 96-well plate. To the transferred media, 50 μL of reconstituted substrate mix was added. The plates were covered from light and incubated at RT for 10 min. Then, 50 μL of stop solution was added to each well. The plates were then read using a Synergy 4 (Biotek) equipment recording the absorbance at 490 nm.
# as §2
# For cytotoxicity assay, Lysis control was taken as 100%/o of LDH release. The vehicle values were taken as basal LDH release and were subtracted to all the treatments (including vehicle itself) having this value as 0% of LDH release. The LDH release for the treatments was calculated respect to the 100% of LDH release of Lysis control normalized against vehicle. All the negatives values were taken as 0% of cytotoxicity. The graphics were made using the Graph Prism ver. 6.05 software.
# [3] = 24 h treatment, HepG2_LSSprom cells
"IC50 [1, 3]",Structure (SMILES),IC50 at 24 h [2],IC50 [1]
0.4 µM,"CC(C)(C)OC(=O)NC1CCCN(C(=O)c2ccc(-c3csc(-c4ccnc(N5CCOCC5)c4)c3)c(Cl)c2)C1 (stereo not drawn) [Compound 64, tert-butyl N-[1-(3-chloro-4-{5-[2-(morpholin-4-yl)pyridin-4-yl]thiophen-3-yl}benzoyl)piperidin-3-yl]carbamate]",> 10 µM,
2.4 µM,"NC1CCCN(C(=O)c2ccc(-c3csc(-c4ccnc(N5CCOCC5)c4)c3)c(Cl)c2)C1 (stereo not drawn) [Compound 65, 1-(3-chloro-4-(5-[2-(morpholin-4-yl)pyridin-4-yl]thiophen-3-yl)benzoyl)piperidin-3-amine]",> 10 µM,
> 10 µM,"Cc1sc(-c2ccnc(C(C)(C)C)c2)cc1-c1ccc(C(=O)N2CCCC(N)C2)cc1Cl (stereo not drawn) [Compound 66, 1-{4-[5-(2-tert-butylpyridin-4-yl)-2-methylthiophen-3-yl]-3-chlorobenzoyl}piperidin-3-amine]",> 10 µM,
0.15 µM,"CC(C)(C)c1cc(-c2csc(-c3ccc(C(=O)N4CC[C@H](O)C4)cc3Cl)c2)ccn1 [Compound 68a, (3S)-1-{4-[4-(2-tert-butylpyridin-4-yl)thiophen-2-yl]-3-chlorobenzoyl}pyrrolidin-3-ol]",> 10 µM,
0.06 µM,"CC(C)(C)c1cc(-c2csc(-c3ccc(C(=O)N4CC[C@@H](O)C4)cc3Cl)c2)ccn1 [Compound 68b, (3R)-1-{4-[4-(2-tert-butylpyridin-4-yl)thiophen-2-yl]-3-chlorobenzoyl}pyrrolidin-3-ol]",> 10 µM,
0.015 µM,"CC(C)(C)OC(=O)N[C@@H]1CCCN(C(=O)c2ccc(-c3cc(-c4ccnc(C(C)(C)C)c4)cs3)c(Cl)c2)C1 [Compound 69, tert-butyl N-[(3R)-1-{4-[4-(2-tert-butylpyridin-4-yl)thiophen-2-yl]-3-chlorobenzoyl}piperidin-3-yl]carbamate]",> 10 µM,
0.08 µM,"CN(C(=O)OC(C)(C)C)C1CCCN(C(=O)c2ccc(-c3csc(-c4ccnc(C(C)(C)C)c4)c3)c(Cl)c2)C1 (stereo not drawn) [Compound 70, tert-butyl N-(1-{4-[5-(2-tert-butylpyridin-4-yl)thiophen-3-yl]-3-chlorobenzoyl}piperidin-3-yl)-N-methylcarbamate]",> 10 µM,
0.34 µM,"CC(C)(C)OC(=O)N1CCCC(NC(=O)c2ccc(-c3csc(-c4ccnc(C(C)(C)C)c4)c3)c(Cl)c2)C1 (stereo not drawn) [Compound 71, tert-butyl 3-{4-[5-(2-tert-butylpyridin-4-yl)thiophen-3-yl]-3-chlorobenzamido}piperidine-1-carboxylate]",> 10 µM,

# The next lines start with the molecule.
Structure (SMILES),"IC50 [1, 3]",IC50 at 24 h [2],IC50 [1]
"CC(C)(C)c1cc(-c2cc(-c3ccc(C(=O)N4CCC[C@H](O)C4)cc3Cl)cs2)ccn1 [Compound 48b, (S)-(4-(5-(2-(tert-butyl)pyridin-4-yl)thiophen-3-yl)-3-chlorophenyl)(3-hydroxypiperidin-1-yl)methanone]",0.12 µM,> 10 µM,
"CC(C)(C)c1cc(-c2cc(-c3ccc(C(=O)Nc4cccc(O)c4)cc3Cl)cs2)ccn1 [Compound 49, 4-[5-(2-tert-butylpyridin-4-yl)thiophen-3-yl]-3-chloro-N-(3-hydroxyphenyl) benzamide]",> 1 µM,> 10 µM,
"C[C@@H]1CN(C(=O)c2ccc(-c3csc(-c4ccnc(C(C)(C)C)c4)c3)c(Cl)c2)C[C@H](C)O1 [Compound 50, (2R,6S)-4-{4-[5-(2-tert-butylpyridin-4-yl)thiophen-3-yl]-3-chlorobenzoyl}-2,6-dimethylmorpholine]",1.3 µM,> 10 µM,
"CC(C)N1CCc2cc(-c3csc(-c4ccnc(C(C)(C)C)c4)c3)c(Cl)cc2C1=O [Compound 52, 6-[5-(2-tert-butylpyridin-4-yl)thiophen-3-yl]-7-chloro-2-(propan-2-yl)-1,2,3,4-tetrahydroisoquinolin-1-one]",1.7 µM,> 10 µM,
"Cc1cc(C)c(CNC(=O)c2ccc(-c3csc(-c4ccnc(C(C)(C)C)c4)c3)c(Cl)c2)c(=O)[nH]1 [Compound 53, 4-[5-(2-tert-butylpyridin-4-yl)thiophen-3-yl]-3-chloro-N-[(4,6-dimethyl-2-oxo-1,2-dihydropyridin-3-yl)methyl]benzamide]",3.9 µM,> 10 µM,
"CC(C)(C)c1cc(-c2cc(-c3ccc(C(=O)Nc4ccc(F)cc4)cc3Cl)cs2)ccn1 [Compound 54, 4-[5-(2-tert-butylpyridin-4-yl)thiophen-3-yl]-3-chloro-N-(4-fluorophenyl) benzamide]",0.54 µM,> 10 µM,
"CC(C)(C)C(=O)NC1CCCN(C(=O)c2ccc(-c3csc(-c4ccnc(C(C)(C)C)c4)c3)c(Cl)c2)C1 (stereo not drawn) [Compound 55, N-(1-{4-[5-(2-tert-butylpyridin-4-yl)thiophen-3-yl]-3-chlorobenzoyl}piperidin-3-yl)-2,2-dimethylpropanamide]",0.36 µM,> 10 µM,
"CC(C)(C)c1cc(-c2cc(-c3ccc(C(=O)N4CCCC(NC(=O)NC5CC5)C4)cc3Cl)cs2)ccn1 (stereo not drawn) [Compound 56, 1-(1-{4-[5-(2-tert-butylpyridin-4-yl)thiophen-3-yl]-3-chlorobenzoyl}piperidin-3-yl)-3-cyclopropylurea]",1 µM,> 10 µM,
"CC(C)(C)c1cc(-c2cc(-c3ccc(C(=O)N4CCC(O)CC4)cc3Cl)cs2)ccn1 [Compound 57, 1-{4-[5-(2-tert-butylpyridin-4-yl)thiophen-3-yl]-3-chlorobenzoyl}piperidin-4-ol]",0.55 µM,> 10 µM,
"CC(C)(C)c1cc(-c2cc(-c3ccc(C(=O)Nc4cccnc4)cc3Cl)cs2)ccn1 [Compound 58, 4-[5-(2-tert-butylpyridin-4-yl)thiophen-3-yl]-3-chloro-N-(pyridin-3-yl)benzamide]",1.4 µM,> 10 µM,
"CC(C)(C)c1cc(-c2cc(-c3ccc(C(=O)N4CCC(NS(C)(=O)=O)CC4)cc3Cl)cs2)ccn1 [Compound 59, N-(1-{4-[5-(2-tert-butylpyridin-4-yl)thiophen-3-yl]-3-chlorobenzoyl}piperidin-4-yl)methanesulfonamide]",1.6 µM,> 10 µM,
"CN(C(=O)c1ccc(-c2csc(-c3ccnc(C(C)(C)C)c3)c2)c(Cl)c1)c1ncco1 [Compound 60, 4-[5-(2-tert-butylpyridin-4-yl)thiophen-3-yl]-3-chloro-N-methyl-N-(1,3-oxazol-2-yl)benzamide]",3.5 µM,> 10 µM,
"CC(C)(C)c1cc(-c2cc(-c3ccc(C(=O)NCC(=O)N4CCOCC4)cc3Cl)cs2)ccn1 [Compound 61, 4-[5-(2-tert-butylpyridin-4-yl)thiophen-3-yl]-3-chloro-N-[2-(morpholin-4-yl)-2-oxoethyl]benzamide]",1.5 µM,> 10 µM,
CN1C2CCC1CC(NC(=O)c1ccc(-c3csc(-c4ccnc(C(C)(C)C)c4)c3)c(Cl)c1)C2 (stereo not drawn) [Compound 62],,> 10 µM,> 3 µM
"CCOC(=O)NC1CCN(C(=O)c2ccc(-c3csc(-c4ccnc(C(C)(C)C)c4)c3)c(Cl)c2)CC1 [Compound 63, ethyl N-(1-{4-[5-(2-tert-butylpyridin-4-yl)thiophen-3-yl]-3-chlorobenzoyl}piperidin-4-yl)carbamate]",2.1 µM,> 10 µM,
"Cc1sc(-c2ccnc(C(C)(C)C)c2)cc1-c1ccc(C(=O)Nc2ccccc2)cc1Cl [Compound 67, 4-[5-(2-tert-butylpyridin-4-yl)-2-methylthiophen-3-yl]-3-chloro-N-phenyl benzamide]",,> 10 µM,4.7 µM
